How the values were obtained:
Experiment in all cases: relative viability (nuclei count vs DMSO), 5 days (fraction); higher = more cells survive
[1] = compound: CCN1CCC(CC1)N2C=C(N=N2)CNC3=CC4=C(C(=CN=C4C(=C3)Cl)C#N)NC5=CC(=C(C=C5)F)Cl [KIN001-266] + CC1(C)CCC(c2ccc(Cl)cc2)=C(CN2CCN(c3ccc(C(=O)NS(=O)(=O)c4ccc(N[C@H](CCN5CCOCC5)CSc5ccccc5)c(S(=O)(=O)C(F)(F)F)c4)cc3)CC2)C1 [Navitoclax] (partner 0.5 µM)
Procedure, shortened: (§1)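 Five library-drug doses in √10 steps were combined with a fixed anchor-drug dose, or a single drug was given alone, by pin tool to lung cancer cell lines in 1536-well plates the day after seeding. Nuclei were stained and counted after 5 days. Relative viability is the nuclei count in treated wells over that in vehicle wells, taken as the median of duplicate plates.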

[2] = compound: CCN1CCC(CC1)N2C=C(N=N2)CNC3=CC4=C(C(=CN=C4C(=C3)Cl)C#N)NC5=CC(=C(C=C5)F)Cl [KIN001-266] + Cc1cc(Nc2cc(N3CCN(C)CC3)nc(Sc3ccc(NC(=O)C4CC4)cc3)n2)n[nH]1 [Tozasertib] (partner 0.1 µM)
Procedure, shortened: as §1

[3] = compound: CCN1CCC(CC1)N2C=C(N=N2)CNC3=CC4=C(C(=CN=C4C(=C3)Cl)C#N)NC5=CC(=C(C=C5)F)Cl [KIN001-266] + C[C@@H](Oc1cc(-c2cnn(C3CCNCC3)c2)cnc1N)c1c(Cl)ccc(F)c1Cl [Crizotinib] (partner 1 µM)
Procedure, shortened: as §1

[4] = compound: CCN1CCC(CC1)N2C=C(N=N2)CNC3=CC4=C(C(=CN=C4C(=C3)Cl)C#N)NC5=CC(=C(C=C5)F)Cl [KIN001-266] + O=C(CCCCCCC(=O)Nc1ccccc1)NO [Vorinostat] (partner 1 µM)
Procedure, shortened: as §1

Cell Line | relative viability ([1]; first compound 0.08 µM) | relative viability ([1]; first compound 0.253 µM) | relative viability ([1]; first compound 2.53 µM) | relative viability ([1]; first compound 8 µM) | relative viability ([2]; first compound 0.08 µM) | relative viability ([2]; first compound 0.253 µM) | relative viability ([2]; first compound 0.8 µM) | relative viability ([2]; first compound 2.53 µM) | relative viability ([2]; first compound 8 µM) | relative viability ([3]; first compound 0.08 µM) | relative viability ([3]; first compound 0.253 µM) | relative viability ([3]; first compound 2.53 µM) | relative viability ([3]; first compound 8 µM) | relative viability ([4]; first compound 0.08 µM) | relative viability ([4]; first compound 0.253 µM) | relative viability ([4]; first compound 0.8 µM) | relative viability ([4]; first compound 2.53 µM) | relative viability ([4]; first compound 8 µM) | relative viability ([1]; first compound 0.8 µM) | relative viability ([3]; first compound 0.8 µM)
HCC-827 | 1.02 | 1.08 | 0.971 | 0.981 | 0.442 | 0.432 | 0.41 | 0.359 | 0.389 | 0.944 | 0.921 | 0.931 | 0.849 | 0.825 | 0.869 | 0.159 | 0.761 | 0.926 | – | –
HCC-78 | 0.812 | 0.807 | 0.88 | 0.775 | 0.404 | 0.444 | – | 0.373 | 0.317 | 0.324 | 0.357 | 0.39 | 0.381 | 0.582 | 0.36 | 0.419 | 0.493 | 0.453 | 0.758 | 0.293
NCI-H2085 | 1.15 | 1.25 | 1.13 | 0.906 | 0.911 | 0.858 | 0.83 | 0.793 | 0.765 | 0.867 | 1.05 | 0.794 | 0.615 | 0.785 | 0.779 | 0.808 | 0.772 | 0.667 | 1.08 | 0.875
PC-14 | 0.973 | 1.03 | 0.959 | 0.599 | 0.577 | 0.655 | – | 0.589 | 0.432 | 0.92 | 0.972 | 0.852 | 0.571 | 0.627 | 0.803 | 0.158 | 0.577 | 0.0881 | 1.07 | 0.817
NCI-H2342 | – | – | – | – | 0.524 | 0.506 | 0.584 | 0.627 | 0.414 | – | – | – | – | 0.693 | 0.867 | 0.876 | 0.776 | 1.16 | – | –
A-427 | 0.973 | 0.991 | 0.983 | 0.953 | 0.24 | 0.21 | 0.178 | 0.186 | 0.181 | 0.905 | 0.701 | 0.746 | 0.636 | 0.885 | 0.88 | 0.883 | 0.82 | 0.856 | 0.978 | 0.776
H3255 | 0.689 | 0.566 | 0.482 | 0.615 | 0.699 | 0.601 | 0.502 | 0.499 | 0.512 | 0.883 | 0.874 | 0.811 | 0.71 | 0.882 | 0.839 | 0.792 | 0.721 | 0.836 | 0.494 | 0.777
HCC-44 | 1.03 | 1.08 | 1.06 | 1.03 | 0.886 | 0.917 | 0.976 | 0.987 | 0.865 | 0.812 | 0.785 | 0.797 | 0.743 | 1.15 | 1.09 | 1.04 | 1.14 | 1.11 | 0.946 | 0.754
NCI-H1734 | 0.789 | 0.839 | 0.808 | 0.61 | 0.256 | 0.295 | 0.279 | 0.232 | 0.243 | 0.647 | 0.601 | 0.681 | 0.51 | 0.849 | 0.85 | 0.743 | 0.796 | 0.599 | 0.612 | 0.589
ABC-1 | – | – | – | – | 0.156 | 0.227 | 0.199 | 0.166 | 0.204 | 1.29 | 1.31 | 1.04 | 0.435 | 1.36 | 1.24 | 1.26 | 1.09 | 0.987 | – | 1.26
NCI-H661 | – | – | – | – | 0.364 | 0.377 | 0.373 | 0.353 | 0.353 | 1.1 | 0.959 | – | 0.887 | 0.776 | 0.765 | 0.781 | 0.771 | 0.78 | – | –
NCI-H358 | – | – | – | – | 0.107 | 0.129 | 0.132 | 0.0982 | 0.0945 | 0.537 | 0.794 | 0.454 | 0.268 | 0.663 | 0.634 | 0.759 | 0.611 | 0.262 | – | 0.656
EBC-1 | 0.398 | 0.413 | 0.359 | 0.217 | – | – | – | – | – | 0.183 | 0.205 | 0.203 | 0.185 | – | – | – | – | – | 0.409 | 0.205
NCI-H650 | – | – | – | – | 0.791 | 0.713 | 0.74 | 0.732 | 0.672 | 0.703 | 0.752 | 0.797 | 0.71 | 0.321 | 0.558 | 0.505 | 0.455 | 0.598 | – | 0.741
NCI-H1792 | 0.601 | 0.627 | 0.652 | 0.661 | – | – | – | – | – | 0.975 | 0.898 | 0.971 | 0.968 | – | – | – | – | – | 0.581 | 0.932
A549 | 1.26 | 1.17 | 1.3 | 1.2 | – | – | – | – | – | 0.771 | 0.733 | 0.739 | 0.693 | – | – | – | – | – | 1.27 | 0.83
SW 900 | – | – | – | – | 0.741 | 0.584 | 0.567 | 0.482 | 0.491 | – | – | – | – | 0.557 | 0.549 | 0.466 | 0.426 | 0.319 | – | –
NCI-H1703 | 0.987 | 1.08 | 0.875 | 0.632 | – | – | – | – | – | 0.965 | 0.675 | 0.457 | 0.371 | – | – | – | – | – | 1.13 | 0.63
LCLC-103H | – | – | – | – | 0.492 | 0.494 | 0.413 | 0.52 | 0.504 | 1.05 | 1.06 | 1.02 | 0.927 | 0.82 | 0.84 | 0.762 | 0.843 | 0.685 | – | 1.01
NCI-H1563 | – | – | – | – | – | – | – | – | – | 0.877 | 0.799 | 0.852 | 0.879 | – | – | – | – | – | – | 0.95
NCI-H1395 | 1.15 | 1.26 | 1.1 | 0.938 | 0.808 | 0.779 | 0.786 | 0.724 | 0.677 | – | – | – | – | 0.679 | 0.768 | 0.828 | 0.654 | 0.709 | 1.25 | –

Source: the supplement of paper PMC10307832
